Results: ChEMBL document CHEMBL3286323, “The design and synthesis of novel SGLT2 inhibitors: C-glycosides with benzyltriazolopyridinone and phenylhydantoin as the aglycone moieties” (Bioorg Med Chem, 2014)

Biological target: Cytochrome P450 3A4 (Homo sapiens, UniProt P08684)
Assay: Inhibition of CYP3A4 (unknown origin)
Type: ADME
Details: not given

Cytochrome P450 3A4, sequence (P08684 whole entry): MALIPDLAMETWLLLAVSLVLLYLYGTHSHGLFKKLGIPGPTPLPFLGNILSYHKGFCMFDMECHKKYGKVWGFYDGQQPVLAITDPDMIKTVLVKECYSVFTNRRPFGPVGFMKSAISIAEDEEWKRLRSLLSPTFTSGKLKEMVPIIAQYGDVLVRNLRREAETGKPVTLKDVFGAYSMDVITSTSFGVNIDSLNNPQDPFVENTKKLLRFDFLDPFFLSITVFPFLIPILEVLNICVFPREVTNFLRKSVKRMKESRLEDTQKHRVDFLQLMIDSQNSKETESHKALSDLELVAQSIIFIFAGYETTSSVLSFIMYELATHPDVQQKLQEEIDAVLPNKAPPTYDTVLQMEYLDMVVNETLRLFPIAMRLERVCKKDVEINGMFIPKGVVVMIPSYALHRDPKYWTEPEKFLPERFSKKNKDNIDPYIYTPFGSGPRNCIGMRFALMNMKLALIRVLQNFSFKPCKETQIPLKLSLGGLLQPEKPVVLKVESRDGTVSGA

IC50	SMILES
> 11 µM	CCN1C(=O)CN(c2ccc(Cc3cc([C@@H]4O[C@H](CO)[C@@H](O)[C@H](O)[C@H]4O)ccc3Cl)cc2)C1=O
> 11 µM	Cc1cc2nn(Cc3cc([C@@H]4O[C@H](CO)[C@@H](O)[C@H](O)[C@H]4O)ccc3Cl)c(=O)n2cc1Cl

Biological target: Cytochrome P450 2D6 (Homo sapiens, UniProt P10635)
Assay: Inhibition of CYP2D6 (unknown origin)
Type: ADME
Details: not given

Cytochrome P450 2D6, sequence (P10635 whole entry): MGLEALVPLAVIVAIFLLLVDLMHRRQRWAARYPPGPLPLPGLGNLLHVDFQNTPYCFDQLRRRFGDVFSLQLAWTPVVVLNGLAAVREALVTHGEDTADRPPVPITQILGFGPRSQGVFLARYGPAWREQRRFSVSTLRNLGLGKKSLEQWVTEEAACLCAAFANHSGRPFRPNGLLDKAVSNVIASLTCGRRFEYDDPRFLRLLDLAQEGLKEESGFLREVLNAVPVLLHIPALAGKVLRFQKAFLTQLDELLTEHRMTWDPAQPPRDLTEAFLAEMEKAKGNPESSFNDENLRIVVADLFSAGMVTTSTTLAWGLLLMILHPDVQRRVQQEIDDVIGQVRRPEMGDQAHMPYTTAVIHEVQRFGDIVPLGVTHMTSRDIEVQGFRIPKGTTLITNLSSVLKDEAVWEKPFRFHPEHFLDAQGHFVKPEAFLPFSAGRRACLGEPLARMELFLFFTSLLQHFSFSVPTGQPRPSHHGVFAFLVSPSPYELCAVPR

IC50	SMILES
> 11 µM	CCN1C(=O)CN(c2ccc(Cc3cc([C@@H]4O[C@H](CO)[C@@H](O)[C@H](O)[C@H]4O)ccc3Cl)cc2)C1=O
> 11 µM	Cc1cc2nn(Cc3cc([C@@H]4O[C@H](CO)[C@@H](O)[C@H](O)[C@H]4O)ccc3Cl)c(=O)n2cc1Cl

Biological target: T1, Sodium/glucose cotransporter 1 (Homo sapiens, UniProt P13866)
T1 sequence (P13866 whole entry): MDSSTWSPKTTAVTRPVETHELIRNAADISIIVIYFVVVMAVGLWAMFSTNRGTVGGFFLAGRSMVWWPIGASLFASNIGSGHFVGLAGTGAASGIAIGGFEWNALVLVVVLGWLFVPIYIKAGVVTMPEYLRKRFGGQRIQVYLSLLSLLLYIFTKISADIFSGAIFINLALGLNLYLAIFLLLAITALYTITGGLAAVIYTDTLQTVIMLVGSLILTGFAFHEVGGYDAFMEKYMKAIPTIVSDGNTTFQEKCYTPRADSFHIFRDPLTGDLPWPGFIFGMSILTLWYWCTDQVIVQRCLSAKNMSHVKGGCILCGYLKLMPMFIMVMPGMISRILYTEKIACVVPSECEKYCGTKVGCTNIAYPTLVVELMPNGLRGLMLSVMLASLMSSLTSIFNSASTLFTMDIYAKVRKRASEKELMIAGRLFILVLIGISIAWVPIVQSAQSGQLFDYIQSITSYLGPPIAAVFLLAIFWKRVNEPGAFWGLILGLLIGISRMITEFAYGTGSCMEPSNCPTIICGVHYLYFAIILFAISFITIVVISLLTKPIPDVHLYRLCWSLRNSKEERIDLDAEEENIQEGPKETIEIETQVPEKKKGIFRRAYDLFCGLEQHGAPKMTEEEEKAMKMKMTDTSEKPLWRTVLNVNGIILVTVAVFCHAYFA
Assay: Inhibition of human SGLT1 expressed in CHOK1 cells assessed as inhibition of [14C]-AMG uptake after 3 hrs by microbeta scintillation counting analysis
Type: cell-based, CHO-K1
Details: not given

IC50	SMILES
> 90 µM	O=c1n(Cc2cc([C@@H]3O[C@H](CO)[C@@H](O)[C@H](O)[C@H]3O)ccc2Cl)nc2c(F)cccn12
83.1 µM	CN1C(=O)N(c2ccc(Cc3cc([C@@H]4O[C@H](CO)[C@@H](O)[C@H](O)[C@H]4O)ccc3Cl)cc2)C(C)(C)C1=O
> 90 µM	O=c1n(Cc2cc([C@@H]3O[C@H](CO)[C@@H](O)[C@H](O)[C@H]3O)ccc2Cl)nc2c(Cl)cccn12
90 µM	CN1C(=O)CN(c2ccc(Cc3cc([C@@H]4O[C@H](CO)[C@@H](O)[C@H](O)[C@H]4O)ccc3Cl)cc2)C1=O
> 90 µM	Cc1ccn2c(=O)n(Cc3cc([C@@H]4O[C@H](CO)[C@@H](O)[C@H](O)[C@H]4O)ccc3Cl)nc2c1
> 90 µM	COc1ccn2c(=O)n(Cc3cc([C@@H]4O[C@H](CO)[C@@H](O)[C@H](O)[C@H]4O)ccc3Cl)nc2c1
> 90 µM	O=c1n(Cc2cc([C@@H]3O[C@H](CO)[C@@H](O)[C@H](O)[C@H]3O)ccc2Cl)nc2ccc(F)cn12

Biological target: T2, Cytochrome P450 2B6 (Homo sapiens, UniProt P20813)
T2 sequence (P20813 whole entry): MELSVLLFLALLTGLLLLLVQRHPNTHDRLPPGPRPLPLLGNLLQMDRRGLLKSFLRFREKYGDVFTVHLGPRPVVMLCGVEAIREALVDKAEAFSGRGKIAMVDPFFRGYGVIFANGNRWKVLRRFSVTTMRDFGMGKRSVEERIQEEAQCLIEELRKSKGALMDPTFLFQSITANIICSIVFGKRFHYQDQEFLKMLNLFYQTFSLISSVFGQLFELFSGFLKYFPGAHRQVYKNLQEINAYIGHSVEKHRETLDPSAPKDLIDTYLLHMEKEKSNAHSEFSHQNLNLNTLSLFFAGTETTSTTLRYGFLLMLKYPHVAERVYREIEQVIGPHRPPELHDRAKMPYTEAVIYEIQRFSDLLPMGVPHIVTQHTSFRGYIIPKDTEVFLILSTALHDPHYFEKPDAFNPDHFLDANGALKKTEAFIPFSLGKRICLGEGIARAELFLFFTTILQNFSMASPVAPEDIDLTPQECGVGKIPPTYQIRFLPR
Assay: Inhibition of CYP2B6 (unknown origin)
Type: ADME
Details: not given

IC50	SMILES
> 11 µM	CCN1C(=O)CN(c2ccc(Cc3cc([C@@H]4O[C@H](CO)[C@@H](O)[C@H](O)[C@H]4O)ccc3Cl)cc2)C1=O
> 11 µM	Cc1cc2nn(Cc3cc([C@@H]4O[C@H](CO)[C@@H](O)[C@H](O)[C@H]4O)ccc3Cl)c(=O)n2cc1Cl

Biological target: Cytochrome P450 2C19 (Homo sapiens, UniProt P33261)
Assay: Inhibition of CYP2C19 (unknown origin)
Type: ADME
Details: not given

Cytochrome P450 2C19, sequence (P33261 whole entry): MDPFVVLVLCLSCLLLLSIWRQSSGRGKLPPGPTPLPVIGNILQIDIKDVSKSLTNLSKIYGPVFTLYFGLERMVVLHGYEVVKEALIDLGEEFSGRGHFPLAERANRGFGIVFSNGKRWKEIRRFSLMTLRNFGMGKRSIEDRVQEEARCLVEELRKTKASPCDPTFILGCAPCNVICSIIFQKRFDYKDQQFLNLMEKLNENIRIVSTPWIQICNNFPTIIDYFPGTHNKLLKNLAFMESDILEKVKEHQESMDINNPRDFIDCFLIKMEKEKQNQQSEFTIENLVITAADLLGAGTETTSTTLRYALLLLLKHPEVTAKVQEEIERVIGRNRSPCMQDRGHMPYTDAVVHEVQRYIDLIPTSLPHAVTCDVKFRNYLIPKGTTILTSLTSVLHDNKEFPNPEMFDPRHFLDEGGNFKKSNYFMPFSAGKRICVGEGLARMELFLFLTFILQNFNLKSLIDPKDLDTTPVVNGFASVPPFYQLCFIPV

IC50	SMILES
> 11 µM	CCN1C(=O)CN(c2ccc(Cc3cc([C@@H]4O[C@H](CO)[C@@H](O)[C@H](O)[C@H]4O)ccc3Cl)cc2)C1=O
> 11 µM	Cc1cc2nn(Cc3cc([C@@H]4O[C@H](CO)[C@@H](O)[C@H](O)[C@H]4O)ccc3Cl)c(=O)n2cc1Cl

System: not listed separately
Assay: Intrinsic clearance in human liver microsomes
Type: ADME
Details: read-out: CLH

microsomal CLint	SMILES
1.3 µL/min/mg	CCN1C(=O)CN(c2ccc(Cc3cc([C@@H]4O[C@H](CO)[C@@H](O)[C@H](O)[C@H]4O)ccc3Cl)cc2)C1=O
3.6 µL/min/mg	Cc1cc2nn(Cc3cc([C@@H]4O[C@H](CO)[C@@H](O)[C@H](O)[C@H]4O)ccc3Cl)c(=O)n2cc1Cl

Biological target: T3, Cytochrome P450 1A2 (Homo sapiens, UniProt P05177)
T3 sequence (P05177 whole entry): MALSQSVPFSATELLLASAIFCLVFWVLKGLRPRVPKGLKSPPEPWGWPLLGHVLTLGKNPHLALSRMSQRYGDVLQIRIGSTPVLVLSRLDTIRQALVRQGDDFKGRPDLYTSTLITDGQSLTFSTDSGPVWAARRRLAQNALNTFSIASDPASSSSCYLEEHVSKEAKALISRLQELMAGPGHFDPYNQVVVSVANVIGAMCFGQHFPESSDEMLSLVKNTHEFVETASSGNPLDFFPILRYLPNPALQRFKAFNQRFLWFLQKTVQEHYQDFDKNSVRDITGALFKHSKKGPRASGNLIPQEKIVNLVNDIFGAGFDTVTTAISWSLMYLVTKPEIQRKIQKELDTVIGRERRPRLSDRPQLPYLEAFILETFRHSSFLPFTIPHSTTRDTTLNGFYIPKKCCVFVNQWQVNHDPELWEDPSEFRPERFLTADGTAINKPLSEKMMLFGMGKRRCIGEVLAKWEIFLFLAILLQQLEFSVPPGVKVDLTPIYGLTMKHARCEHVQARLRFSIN
Assay: Inhibition of CYP1A2 (unknown origin)
Type: ADME
Details: not given

IC50	SMILES
> 11 µM	CCN1C(=O)CN(c2ccc(Cc3cc([C@@H]4O[C@H](CO)[C@@H](O)[C@H](O)[C@H]4O)ccc3Cl)cc2)C1=O
> 11 µM	Cc1cc2nn(Cc3cc([C@@H]4O[C@H](CO)[C@@H](O)[C@H](O)[C@H]4O)ccc3Cl)c(=O)n2cc1Cl

System: not listed separately
Assay: Oral bioavailability in rat
Type: ADME, organism-based
Details: in vivo

bioavailability	SMILES
4%	CCN1C(=O)CN(c2ccc(Cc3cc([C@@H]4O[C@H](CO)[C@@H](O)[C@H](O)[C@H]4O)ccc3Cl)cc2)C1=O

Biological target: Cytochrome P450 2C9 (Homo sapiens, UniProt P11712)
Assay: Inhibition of CYP2C9 (unknown origin)
Type: ADME
Details: not given

Cytochrome P450 2C9, sequence (P11712 whole entry): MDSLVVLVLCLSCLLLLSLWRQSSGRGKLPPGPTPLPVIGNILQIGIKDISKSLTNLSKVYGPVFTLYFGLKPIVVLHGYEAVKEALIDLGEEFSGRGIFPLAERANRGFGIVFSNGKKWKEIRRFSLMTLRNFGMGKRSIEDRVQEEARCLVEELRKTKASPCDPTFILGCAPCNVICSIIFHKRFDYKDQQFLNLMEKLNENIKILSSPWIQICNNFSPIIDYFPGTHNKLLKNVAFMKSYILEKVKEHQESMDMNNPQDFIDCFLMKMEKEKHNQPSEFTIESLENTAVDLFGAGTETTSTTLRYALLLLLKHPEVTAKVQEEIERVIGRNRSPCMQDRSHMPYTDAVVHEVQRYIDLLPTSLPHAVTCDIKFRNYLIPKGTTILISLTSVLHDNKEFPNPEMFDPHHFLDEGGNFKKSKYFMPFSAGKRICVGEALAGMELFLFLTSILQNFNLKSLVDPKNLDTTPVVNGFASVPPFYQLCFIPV

IC50	SMILES
> 11 µM	CCN1C(=O)CN(c2ccc(Cc3cc([C@@H]4O[C@H](CO)[C@@H](O)[C@H](O)[C@H]4O)ccc3Cl)cc2)C1=O
> 11 µM	Cc1cc2nn(Cc3cc([C@@H]4O[C@H](CO)[C@@H](O)[C@H](O)[C@H]4O)ccc3Cl)c(=O)n2cc1Cl

System: not listed separately
Assay: Half life in rat
Type: ADME, organism-based
Details: in vivo

half-life	SMILES
35 min	CCN1C(=O)CN(c2ccc(Cc3cc([C@@H]4O[C@H](CO)[C@@H](O)[C@H](O)[C@H]4O)ccc3Cl)cc2)C1=O

System: not listed separately
Assay: Intrinsic clearance in rat liver microsomes
Type: ADME
Details: read-out: CLH

microsomal CLint	SMILES
1.9 µL/min/mg	CCN1C(=O)CN(c2ccc(Cc3cc([C@@H]4O[C@H](CO)[C@@H](O)[C@H](O)[C@H]4O)ccc3Cl)cc2)C1=O
2.8 µL/min/mg	Cc1cc2nn(Cc3cc([C@@H]4O[C@H](CO)[C@@H](O)[C@H](O)[C@H]4O)ccc3Cl)c(=O)n2cc1Cl

Biological target: T4, Sodium/glucose cotransporter 2 (Homo sapiens, UniProt P31639)
T4 sequence (P31639 whole entry): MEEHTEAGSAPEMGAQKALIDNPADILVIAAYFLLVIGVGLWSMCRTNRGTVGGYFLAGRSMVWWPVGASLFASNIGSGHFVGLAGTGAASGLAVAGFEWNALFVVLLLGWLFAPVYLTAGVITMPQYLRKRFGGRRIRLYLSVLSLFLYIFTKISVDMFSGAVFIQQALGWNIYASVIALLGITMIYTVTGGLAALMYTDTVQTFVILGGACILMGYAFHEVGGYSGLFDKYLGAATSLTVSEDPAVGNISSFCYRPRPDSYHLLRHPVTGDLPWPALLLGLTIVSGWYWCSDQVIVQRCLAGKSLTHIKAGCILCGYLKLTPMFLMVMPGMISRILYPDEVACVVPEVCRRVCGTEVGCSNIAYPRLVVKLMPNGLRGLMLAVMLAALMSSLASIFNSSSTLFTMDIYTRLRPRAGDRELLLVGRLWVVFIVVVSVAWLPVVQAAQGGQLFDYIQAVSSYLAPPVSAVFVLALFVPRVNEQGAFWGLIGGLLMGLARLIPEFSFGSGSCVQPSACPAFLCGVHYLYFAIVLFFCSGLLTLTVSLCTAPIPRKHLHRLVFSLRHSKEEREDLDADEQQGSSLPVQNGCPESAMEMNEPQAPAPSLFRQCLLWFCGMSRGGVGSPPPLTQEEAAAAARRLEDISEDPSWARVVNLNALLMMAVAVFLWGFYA
Assay: Inhibition of human SGLT2 expressed in CHOK1 cells assessed as inhibition of [14C]-AMG uptake after 3 hrs by microbeta scintillation counting analysis
Type: cell-based, CHO-K1
Details: not given

IC50	SMILES
0.0109 µM	CCN1C(=O)CN(c2ccc(Cc3cc([C@@H]4O[C@H](CO)[C@@H](O)[C@H](O)[C@H]4O)ccc3Cl)cc2)C1=O
3.3 µM	O=c1n(Cc2cc([C@@H]3O[C@H](CO)[C@@H](O)[C@H](O)[C@H]3O)ccc2Cl)nc2c(F)cccn12
0.248 µM	CN1C(=O)N(c2ccc(Cc3cc([C@@H]4O[C@H](CO)[C@@H](O)[C@H](O)[C@H]4O)ccc3Cl)cc2)C(C)(C)C1=O
9 µM	O=c1n(Cc2cc([C@@H]3O[C@H](CO)[C@@H](O)[C@H](O)[C@H]3O)ccc2Cl)nc2c(Cl)cccn12
0.489 µM	CN1C(=O)CN(c2ccc(Cc3cc([C@@H]4O[C@H](CO)[C@@H](O)[C@H](O)[C@H]4O)ccc3Cl)cc2)C1=O
5.48 µM	COc1ccn2c(=O)n(Cc3cc([C@@H]4O[C@H](CO)[C@@H](O)[C@H](O)[C@H]4O)ccc3Cl)nc2c1
0.033 µM	Cc1cc2nn(Cc3cc([C@@H]4O[C@H](CO)[C@@H](O)[C@H](O)[C@H]4O)ccc3Cl)c(=O)n2cc1Cl
